# According to patent publication US9198416B2, “Method for enhancing drought tolerance in plants” (Plant Response Biotech S.L., priority 2013, dated 2015):
# What was measured:
# Format in all cases: in vivo
# [1] = tested on: tomato 'Moneymaker' seeds; experiment: Tomato seed germination under PEG-6000 simulated drought; conditions: 10 days
# Description: In order to determine the drought or water stress tolerance after seed treatments with TMAO di-hydrate and germination in the presence of TMAO di-hydrate, tomato ‘Moneymaker’ seeds were surface sterilized for 3 minutes in ethanol 70%, then rinsed twice and finally included in a pre-treatment solution of 0.1 g/L TMAO di-hydrate solution (or just water) under shaking for 3 hours. Then, they were rinsed and included in the germination plates under sterile conditions. Polyethylene glycol (PEG-6000) was added to the germination medium (Murashige and Skoog salts medium) at 152 and 182 g/L. The increasing amount of PEG reduces ψ (hydric potential) values, simulating drought conditions for germination. Each germination plate had at least 30 seeds, and each treatment/pretreatment plate was replicated five times (150 seeds per treatment/pretreatment). Seeds were left to germinate for 10 days under dark conditions in a culture chamber (21° C. light and 20° C. night, 65% humidity). Then, germinated seeds were recorded by visual inspection and data analysis was performed using Statgraphics software.
# TMAO di-hydrate applied exogenously increases germination both in pre-treatment of the seeds and as an additive to the medium. Tomato ‘Moneymaker’ seeds were sown, grown and treated as described above.
# [2] = TMAO content in pepper leaves by NMR after TMAO spray; conditions: 1 g/l spray
# Description: (§1) For each wilting or limited water experiment 480 seeds (of either pepper, barley, tomato, cucumber or corn) were sown, producing 384 plants in 512 cm^3 pots (4 plants per pot). Plants were grown under chamber conditions at 21° C. for 3 weeks. Then, the plants were moved to a greenhouse, where average temperature was 25° C. to 28° C. Treatments as described herein were done when the plants had two extended leaves and the next pair of leaves were coming up.
# (§2) TMAO content in plants was determined by harvesting three leaves per treatment and freezing them in liquid nitrogen before the NMR determination. At least three independent plants were treated per experiment.
# (§3) TMAO accumulates in pepper and barley when applied exogenously. ‘Murano’ pepper seeds and ‘Bomi’ barley seeds were sown and grown as described above. Control plants (six weeks old) were sprayed with water and pepper treated plants were sprayed with 1 g/l of TMAO while barley plants were sprayed with 1 g/l of TMAO formulated with 0.1% of C8-C10 Alkylpolysaccharide. Leaves were harvested and TMAO was determined by NMR. The percentage of TMAO increase compared to untreated controls was determined for each time point. TMAO levels increase in pepper and barley with exogenous treatment of TMAO at 1 g/l to higher levels than drought treatment and furthermore, the TMAO levels are high up to 40 days post spray in pepper.
# [3] = tested on: 'Bomi' barley; experiment: Barley dry weight under drought / limited water irrigation; conditions: drought growing conditions
# Description: as §1
# Twelve (12) pots (containing 48 plants) were irrigated with 40 ml of either: water, 0.1 g/L TMAO di-hydrate solution, 1.0 g/L TMAO di-hydrate solution, or 5.5 g/L TMAO di-hydrate solution. Another set of 12 pots containing 48 plants were sprayed with 40 ml of either water (3.3 ml in average per pot), a solution containing 0.1 g/L TMAO di-hydrate solution, 1.0 g/L TMAO di-hydrate, or 5.5 g/L TMAO di-hydrate. All pots were also watered with 40 ml of water. The sprayed plants were watered with the same volume of water as the “irrigated plants) The pots were located on plastic glass to maintain constant moisture and to avoid liquid spillage during watering. Trays containing the pots were located on greenhouse tables. The distribution of the trays on the table and the position on the pots in the tray was changed every week to avoid position effects.
# (§4) After the treatments described above, the plants were not watered until the pots completely lost their moisture, taking about 4 to 8 days depending on the season, at which point the plants were extremely wilted for the extreme drought experiments. […] The plant survival rate was recorded and analyzed for the “extreme drought” experiments in which plants were allowed to wilt severely before watering, while the stem length was recorded as analyzed for the limited water experiments in which the plants are watered with 30% of the water that the plant requires. […]
# [4] = TMAO content in barley leaves by NMR after TMAO spray; conditions: 1 g/l spray formulated with 0.1% C8-C10 Alkylpolysaccharide, 1 day post spray
# Description: as §1, §2, §3
# [5] = tested on: 'Sabrina', 'Candonga' and 'Fortuna' variety strawberry plants; experiment: Strawberry fruit production under normal conditions (trade-off test); conditions: no water stress; for Strawberry fruit production % Control: 1 g/L spray every 4 weeks for 3 months
# Description: In order to determine the plant fruit productivity under normal conditions, ‘Sabrina’, ‘Candonga’ and ‘Fortuna’ variety strawberry plants were grown under standard strawberry production conditions and 120 plants of each variety per treatment (where the treatment was a Control comprising standard watering or 1 g/L of TMAO spray every four weeks) were analyzed. Plants were located in four (4) different positions for each group of 30 plants from the same treatment. Fruits were harvested from individual plants and total weight was determined for each plant.
# Fruit yield was determined in ‘Sabrina’, ‘Candonga’ and ‘Fortuna’ strawberry plants treated with 1 g/l of TMAO di-hydrate or water as described above in order to evaluate the trade-off costs of the treatment with no water stress.
# [6] = tested on: Moneymaker tomato; experiment: Tomato plant survival under extreme drought; conditions: higher test rates, both treatments (sprayed or watered)
# Description: as §1
# Twelve (12) pots (containing 48 plants) were irrigated with 40 ml of either: water, 0.1 g/L TMAO di-hydrate solution, 1.0 g/L TMAO di-hydrate solution, or 5.5 g/L TMAO di-hydrate solution. […]
# as §4
# [7] = tested on: 'Murano' pepper; experiment: Pepper plant survival under extreme drought; conditions: 10 g/L and 1 g/L sprayed, irrigation with water (as worded)
# Description: as §1
# Twelve (12) pots (containing 48 plants) were irrigated with 40 ml of either: water, 0.1 g/L TMAO di-hydrate solution, 1.0 g/L TMAO di-hydrate solution, or 5.5 g/L TMAO di-hydrate solution. […] All pots were also watered with 40 ml of water. […]
# as §4
# [8] = tested on: 'FAO700' corn; experiment: Corn number of green leaves under limited water irrigation; conditions: 30% water, 1 g/L (Table 11 rows 3 and 4)
# Description: as §1
# (§5) After the treatments described above, the plants were not watered until the pots completely lost their moisture, taking about 4 to 8 days depending on the season, at which point the plants were extremely wilted for the extreme drought experiments. The plants were then watered once with solutions containing the different amounts of TMAO di-hydrate described above (0.1 g/L, 1.0 g/L or 5.5 g/L) or just water, after which the plants were left to lose their moisture completely again for three consecutive cycles of watering after wilting. […] The plant survival rate was recorded and analyzed for the “extreme drought” experiments in which plants were allowed to wilt severely before watering, while the stem length was recorded as analyzed for the limited water experiments in which the plants are watered with 30% of the water that the plant requires. […]
# [9] = tested on: 'Rio Grande' tomato; experiment: Tomato fruit production under limited water irrigation; conditions: 30% water irrigation, 1 g/L TMAO spray every 4 weeks
# Description: as §1, §5
# [10] = tested on: 'TAO700' corn; experiment: Corn number of grains per cob under limited water irrigation; conditions: 30% water, 1 g/L (Table 13 row 4)
# Description: as §1, §5
# [11] = tested on: 'TAO700' corn; experiment: Corn total chlorophyll content under limited water irrigation; conditions: 30% water
# Description: as §1, §5
smiles,measurement,setting,value
"C[N+](C)(C)[O-] [TMAO, Trimethylamine N-oxide]",GERMINATION RATE,"[1]; PEG 152 g/L (ψ −0.2564), 0.1 g/L in the germination medium",71.09 ± 4.26%
same,GERMINATION RATE,"[1]; PEG 152 g/L (ψ −0.2564), seed pre-treatment 0.1 g/L solution 3 hours",70.62 ± 4.62%
same,GERMINATION RATE,"[1]; PEG 182 g/L (ψ −0.3676), 0.1 g/L in the germination medium",45.00 ± 3.20%
same,GERMINATION RATE,"[1]; PEG 182 g/L (ψ −0.3676), seed pre-treatment 0.1 g/L solution 3 hours",18.53 ± 3.20%
same,TMAO accumulation % Control,"[2]; 1 day post spray, vs water-sprayed control",529 % Control
same,TMAO accumulation % Control,[2]; 10 days post spray,373 % Control
same,TMAO accumulation % Control,[2]; 20 days post spray,286 % Control
same,TMAO accumulation % Control,[2]; 30 days post spray,135 % Control
same,TMAO accumulation % Control,[2]; 40 days post spray,213 % Control
same,AVERAGE DRY WEIGHT,"[3]; initial treatment 1 g/L sprayed solution, irrigations water",1205.4 ± 60.37 mg
same,AVERAGE DRY WEIGHT,"[3]; initial treatment 1 g/L watered solution, irrigations water",1371.4 ± 66.13 mg
same,AVERAGE DRY WEIGHT,"[3]; irrigations 1 g/L solution, initial treatments pooled",1216.1 ± 33.44 mg
same,TMAO accumulation % Control,[4],822 % Control
same,difference in fruit production vs water,"[5]; 1 g/l, three strawberry varieties",no significant difference
same,Strawberry fruit production % Control,[5]; Candonga,102 % Control
same,Strawberry fruit production % Control,[5]; Fortuna,101 % Control
same,Strawberry fruit production % Control,[5]; Sabrina,106 % Control
same,Strawberry fruit production % Control,[5]; Total of the three varieties,105 % Control
same,shoot dry mass compared with untreated plants,[6],clear increase
same,plant survival,[7],83.3%
same,increase in green leaf production over untreated plants with 30% irrigation,[8],47%
same,AVERAGE WEIGTH (grams/fruit),[9],76.73 ± 17.67 grams/fruit
same,increase in total number of grains per corn cob compared to 100% irrigation,[10],2%
same,TOTAL CHLOROPHYL CONTENT,[11]; 1 g/L TMAO seed treatment,0.8977 ± 0.195
same,TOTAL CHLOROPHYL CONTENT,[11]; 1 g/L TMAO spray,0.7278 ± 0.076
